Experimental data taken from publication PMC7466280 (Cell, 2020).
Read-outs that look alike come from different tables or passages of the source.

How the values were obtained:
NTSR1 [1] = target: T1, NTSR1 (Homo sapiens, UniProt P30989); test: Radioligand binding to NTSR1-containing HEK293T cell membranes
NTSR1 [2] = target: T1, NTSR1; test: Phosphorylated NTSR1 detection by western blot; assay type: cell-based; settings: NTSR1-expressing HEK293T cells; NTS 10 nM, SBI-553 10 μM, SR142948A 10 μM
NTSR1 [3] = target: T1, NTSR1; test: Confocal β-arrestin2 translocation assay in U2OS cells; assay type: cell-based; settings: for β-arrestin2 translocation: NTSR1-expressing U2OS cells, ligand alone
NTSR1 [4] = target: T1, NTSR1; test: BRET β-arrestin2 recruitment assay in HEK293T cells; assay type: cell-based
NTSR1 [5] = target: T1, NTSR1; test: NTSR1 internalization assay; assay type: cell-based
NTSR1 [6] = target: T1, NTSR1; test: Gq protein activation by TGFα shedding assay; assay type: cell-based; settings: for effect on NTS-induced Gq activation: in combination with NTS; for Gq activation: ligand alone
NTSR1 [7] = target: T1, NTSR1; test: IP3 BRET assay; assay type: cell-based; settings: for effect on NTS-induced IP3 production: in combination with NTS; for IP3 generation: ligand alone, SBI-553 10 μM, SR142948A 10 μM
NTSR1 [8] = target: T1, NTSR1; test: Apo-aequorin calcium assay; assay type: cell-based; settings: for effect on NTS-induced Ca2+ mobilization: in combination with NTS (10 nM); for Ca2+ mobilization: ligand alone
NTSR1 [9] = target: T1, NTSR1; test: Phosphorylated ERK detection by western blot; assay type: cell-based
DAT KO mice = test: L-DOPA-induced restoration of locomotion in dopamine depleted DAT KO mice; assay type: in vivo, mouse; settings: 12 mg/kg i.p., AMPT dopamine-depleted DAT KO mice
C57BL/6J mice [10] = test: Stimulant-induced hyperlocomotion in the open field; assay type: in vivo, mouse; settings: 12 mg/kg i.p.
C57BL/6J mice [11] = test: Intravenous cocaine self-administration; assay type: in vivo, mouse
C57BL/6J mice [12] = test: Core body temperature measurement; assay type: in vivo, mouse; settings: PD149163 0.1 – 1 mg/kg i.p.; SBI-553 2–30 mg/kg i.p.
C57BL/6J mice [13] = test: Horizontal wire test; assay type: in vivo, mouse; settings: PD149163 i.p. 120 min, SBI-553 i.p. (up to 30 mg/kg) 30 min prior to testing
C57BL/6J mice [14] = test: Contact righting test; assay type: in vivo, mouse; settings: PD149163 i.p. 120 min, SBI-553 i.p. (up to 30 mg/kg) 30 min prior to testing
C57BL/6J mice [15] = test: Blood pressure measurement; assay type: in vivo, mouse; settings: SBI-553 12 mg/kg i.p.; PD149163 0.3 mg/kg i.p.; 60 minutes post-treatment
C57BL/6J mice [16] = test: Oral SBI-553 modulation of PD149163-induced hypothermia and hypoactivity; assay type: in vivo, mouse; settings: SBI-553 10, 30, 100 mg/kg p.o. 30 min prior to PD149163 i.p.
β-arrestin2 KO mice = assay type: in vivo, mouse; settings: 12 mg/kg i.p.; for cocaine-induced hyperlocomotion: cocaine 30 mg/kg i.p.
C57BL/6J mice [17] = test: Methamphetamine conditioned place preference; settings: 12 mg/kg i.p. 15 min prior to test
[18] = [3H]NTS saturation binding with SBI-553 0.01 – 10 μM
[19] = low-concentration NTS, maximal levels not altered
[20] = HEK293T cells expressing human NTSR1, SBI-553 10 μM, SR142948A 10 μM
[21] = 12 mg/kg i.p., cocaine 0.1 mg/kg/infusion

T1 sequence (P30989 whole entry): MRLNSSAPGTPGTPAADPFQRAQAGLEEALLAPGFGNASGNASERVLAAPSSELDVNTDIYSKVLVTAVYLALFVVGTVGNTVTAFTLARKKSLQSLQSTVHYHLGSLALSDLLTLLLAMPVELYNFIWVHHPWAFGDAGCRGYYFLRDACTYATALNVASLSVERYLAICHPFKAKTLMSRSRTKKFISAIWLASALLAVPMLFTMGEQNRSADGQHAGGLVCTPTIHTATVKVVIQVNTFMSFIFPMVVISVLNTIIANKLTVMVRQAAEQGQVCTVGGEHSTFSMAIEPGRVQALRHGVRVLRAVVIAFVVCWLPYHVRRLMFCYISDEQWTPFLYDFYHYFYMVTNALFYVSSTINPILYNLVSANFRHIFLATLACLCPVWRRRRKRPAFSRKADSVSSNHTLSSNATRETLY

SMILES: COc1ccccc1C1CCN(c2nc(C3(F)CC3)nc3ccc(N(C)CCO)cc23)CC1 [SBI-553]
- effect on total [3H]NTS binding (NTSR1 [1]; 5 nM [3H]NTS, 10 μM unlabeled ligand): increased total [^3H]NTS binding
- increase of NTS affinity for NTSR1 (Kd) (NTSR1 [1]; [18]): up to 3.9 fold
- increase of number of available [3H]NTS binding sites (Bmax) (NTSR1 [1]; [18]): up to 3.3 fold
- NTSR1 phosphorylation (phosphothreonine blot) (NTSR1 [2]): resulted in NTSR1 phosphorylation
- β-arrestin2 translocation in U2OS cells lacking NTSR1 (NTSR1 [3]; NTS 200 nM, SBI-553 7.5 μM, 40 min): Neither NTS nor SBI-553 treatment stimulated β-arrestin2 translocation
- β-arrestin2 translocation (NTSR1 [3]): stimulated β-arrestin2 translocation to the plasma membrane
- effect of pretreatment on NTS-induced β-arrestin2 translocation (NTSR1 [3]; [19]): enhanced
- β-arrestin2 recruitment to NTSR1 (NTSR1 [4]; ligand alone): stimulated β-arrestin2 recruitment
- effect of pretreatment on NTS-induced β-arrestin2 recruitment to NTSR1 (NTSR1 [4]; low-concentration NTS): enhanced
- NTSR1 internalization (NTSR1 [5]; ligand alone): stimulated NTSR1 internalization
- effect of pretreatment on NTS-induced NTSR1 internalization (NTSR1 [5]; [19]): enhanced
- effect on NTS-induced Gq activation (NTSR1 [6]): attenuated
- Gq activation (NTSR1 [6]): neither SBI-553 nor the antagonist SR142948A had any effect
- effect on NTS-induced IP3 production (NTSR1 [7]): attenuated
- IP3 generation (NTSR1 [7]): neither SBI-553 nor SR142948A stimulated
- effect on NTS-induced Ca2+ mobilization (NTSR1 [8]): attenuated
- Ca2+ mobilization (NTSR1 [8]): neither SBI-553 nor SR142948A stimulated
- pERK generation (NTSR1 [9]; HEK293T cells expressing human NTSR1, ligand alone, NTS 10 nM, SBI-553 10 μM): failed to elicit pERK generation
- effect of pretreatment on NTS-induced pERK (NTSR1 [9]; [20]): blunted the early sharp peak in pERK
- NTS-induced pERK, NTS alone vs NTS in combination with SBI-553 (NTSR1 [9]; HEK293 cells lacking the Gq/11 protein (Gq-null)): comparable pERK time courses
- effect of pretreatment on NTS-induced pERK (NTSR1 [9]; β-arrestin1/2-null HEK293 cells): blocked in its entirety
- L-DOPA-induced restoration of locomotion (DAT KO mice): attenuated
- locomotor response vs vehicle in non-stimulant exposed animals (C57BL/6J mice [10]): comparable
- cocaine-induced hyperlocomotion (C57BL/6J mice [10]; cocaine 30 mg/kg i.p.): attenuate cocaine-induced hyperlocomotion
- methamphetamine-induced hyperlocomotion (C57BL/6J mice [10]; methamphetamine 2 mg/kg): reduced
- lever discrimination (percent responses at active and inactive levers) (C57BL/6J mice [11]; 12 mg/kg i.p., 3-day test): lever discrimination was unchanged
- activity at the inactive lever (C57BL/6J mice [11]; [21]): unchanged across treatments
- cocaine intake, level of the vehicle control (C57BL/6J mice [11]; [21]): less than 20%
- latency to initiate lever responding (C57BL/6J mice [11]; [21]): increased the latency to initiate lever responding
- percent of lever responses during the post-reinforcement cue period (C57BL/6J mice [11]; [21]): reduced the percent of lever responses that occurred during the post-reinforcement cue period
- cumulative self-administered cocaine reinforcements (C57BL/6J mice [11]; 12 mg/kg i.p., cocaine 0.1 mg/kg/infusion, FR4, 60 min session): fewer cumulative self-administered reinforcements between 20 and 60 min
- total and active lever responses (C57BL/6J mice [11]; 12 mg/kg i.p., cocaine 0.1 mg/kg/infusion, relative to Vehicle and No Treatment): significantly suppressed total and active lever responses
- cocaine self-administration at the highest cocaine dose (C57BL/6J mice [11]; SBI-553 2, 6, 12 mg/kg i.p., cocaine 1 mg/kg/infusion): No change in self-administration
- lever accuracy (C57BL/6J mice [11]; SBI-553 2, 6, 12 mg/kg i.p., cocaine 0.1-1 mg/kg/infusion): not altered by SBI-553 treatment
- cocaine self-administration dose-response (C57BL/6J mice [11]; SBI-553 6, 12 mg/kg, cocaine 0.1, 0.3, 0.5 mg/kg/infusion): greater efficacy at lower cocaine infusion doses
- core body temperature (C57BL/6J mice [12]): no effect on core body temperature
- wire-hang test, latency to grasp the wire (C57BL/6J mice [13]): failed to influence
- righting reflex (C57BL/6J mice [14]): failed to influence
- peak systolic pressure vs vehicle (C57BL/6J mice [15]): no differences
- PD149163-induced reduction in core body temperature (C57BL/6J mice [16]): dose-dependently attenuated
- PD149163-induced reduction in horizontal activity in the open field (C57BL/6J mice [16]): dose-dependently attenuated
- methamphetamine-induced hyperlocomotion (β-arrestin2 KO mice; A2aR-Cre animals (deletion in striatal D2R-expressing neurons)): no SBI-553 effects were observed
- methamphetamine-induced hyperlocomotion (β-arrestin2 KO mice; D1RCre animals (β-arrestin2 deletion in D1R-expressing neurons)): effectively reduced
- methamphetamine-induced hyperlocomotion (β-arrestin2 KO mice; D2R-Cre mice (β-arrestin2 deletion in D2R-expressing neurons)): failed to affect locomotion
- methamphetamine-induced hyperlocomotion (β-arrestin2 KO mice; DAT-Cre mice (deletion in midbrain D2R-expressing neurons)): reduced the methamphetamine-induced hyperlocomotion
- cocaine-induced hyperlocomotion (β-arrestin2 KO mice; WT mice on C57BL/6J background): decrease
- methamphetamine-induced hyperlocomotion (β-arrestin2 KO mice; WT mice on C57BL/6J background, methamphetamine 2 mg/kg i.p.): decrease
- cocaine-induced hyperlocomotion (β-arrestin2 KO mice; global β-arrestin2 knockout mice): a significant reduction in locomotion was absent
- methamphetamine-induced hyperlocomotion (β-arrestin2 KO mice; global β-arrestin2 knockout mice, methamphetamine 2 mg/kg i.p.): a significant reduction in locomotion was absent
- methamphetamine-induced hyperlocomotion (β-arrestin2 KO mice; β-arrestin2 f/f Cre negative littermate controls): effectively reduced
- expression of methamphetamine conditioned place preference (C57BL/6J mice [17]): blocked the expression of methamphetamine conditioned place preference

SMILES: COc1cccc(OC)c1-c1cc(C(=O)NC2(C(=O)O)C3CC4CC(C3)CC2C4)nn1-c1ccc(C(=O)N(C)CCCN(C)C)cc1C(C)C (stereo not drawn) [SR142948A, reference compound]
- displacement of [3H]SBI-553 from NTSR1 (NTSR1 [1]; 100 nM [3H]SBI-553, 10 μM unlabeled competitor, YOx beads): not displaced
- block of NTS- and SBI-553-induced β-arrestin2 translocation (NTSR1 [3]; NTS 5 nM or SBI-553 10 μM): antagonized NTS-induced, but not SBI-553-induced
- β-arrestin2 translocation (NTSR1 [3]): without effect
- block of NTS- and SBI-553-induced β-arrestin2 recruitment to NTSR1 (NTSR1 [4]): antagonized NTS-induced, but not SBI-553-induced
- block of NTS- and SBI-553-induced NTSR1 internalization (NTSR1 [5]; NTS 10 nM or SBI-553 10 μM): antagonized NTS-induced, but not SBI-553-induced
- effect on NTS-induced Gq activation (NTSR1 [6]): attenuated
- Gq activation (NTSR1 [6]): neither SBI-553 nor the antagonist SR142948A had any effect
- effect on NTS-induced IP3 production (NTSR1 [7]): attenuated
- IP3 generation (NTSR1 [7]): neither SBI-553 nor SR142948A stimulated
- effect on NTS-induced Ca2+ mobilization (NTSR1 [8]): attenuated
- Ca2+ mobilization (NTSR1 [8]): neither SBI-553 nor SR142948A stimulated
- effect of pretreatment on NTS-induced pERK (NTSR1 [9]; [20]): abolished
